Laboratory results from patent US7744867B2, “PTPase inhibitors and method of using same” (The Cleveland Clinic Foundation, priority 2001, dated 2010).

How the values were obtained:
[1] = test system: acute promyelocytic leukemia (APL); conditions: in vivo; cited from earlier work
[2] = test system: NB4 cells; experiment: Differentiation, proliferation and cell cycle of AML cell line; assay type: cell-based, human; conditions: 3 days; sodium stibogluconate 250 μg/ml, ATRA 1 μM
Protocol: Cell lines, cell culture, and cell proliferation assay. The NB4 cell line was a gift from Dr. Dan Lindner of CCF. HL60 and U937 cell lines were purchased from ATCC. These human AML cell lines were maintained in RPMI 1640 medium supplemented with 10% fetal calf serum (FCS). For cell proliferation assays, cells were cultured at 37° C. in 10% FCS medium containing various amounts of sodium stibogluconate for 6 days. The cell numbers in the cultures were determined by an MTT assay as described previously.
Differentiation of AML cell lines was assessed by their ability to produce superoxide as measured by reduction of NBT to formazan and by analysis of expression of CD11b surface marker by flow cytometry. For NBT reduction, each cell suspension was mixed with an equal volume of solution containing 1 mg/ml of NBT (Sigma) and 2.5 μg/ml of TPA for 30 minutes at 37° C. After incubation, cells containing the purple formazan deposits and cells devoid of NBT-reducing activity (white cells) in each sample were determined by counting 200 cells under microscope. We expressed the data as percentage of the following ratio: purple cells/purple+white cells. For analysis of cell surface antigens, cells were exposed to phycoerythrin (PE)−conjugated murine anti-human CD11b (DAKO corp, Carpinteria, Calif.). Analysis of fluorescence was performed on a FACScan flow cytometer (Beckton Dickinson, Mountain View, Calif.). The cell cycle was analyzed by flow cytometry after 3 days of culture of NB4 cells in the absence or presence of sodium stibogluconate (250 μg/ml) or ATRA (1 μM). Briefly, the cells were fixed in cold ethanol and incubated for 30 minutes at 4° C. in the dark with a solution of […] propidium iodide, 1 mg/ml RNase and 0.1% NP-40. Analysis was performed immediately after staining using the CELLFIT program (Becton Dickinson, Mountain View, Calif.).

[3] = test system: Baf3 cells; experiment: IL-3-induced proliferation of Baf3 cells; assay type: cell-based, murine
Protocol: The murine hematopoietic cell line Baf3 was maintained in RPMI 1640 medium supplemented with 10% fetal calf serum (FCS) and murine IL-3 (20 units/ml) as described previously. Human myeloid cell line TF-1 was maintained in RPMI 1640 supplemented with 10% FCS and 40 ng/ml of recombinant human GM-CSF as described previously. For cell proliferation assays, cells were washed in 10% FCS medium twice, resuspended in 10% FCS medium, incubated at 37° C. for 16 hours and then cultured at 37° C. in 10% FCS medium containing various amounts of cytokines, sodium stibogluconate, or PSbT for 3-6 days as indicated. The cell numbers in proliferation assays were determined by an MTT assay or by microscopic cell counting as indicated.

[4] = test system: Jak2 and Stat5 tyrosine phosphorylation; experiment: IL-3-induced Jak2/Stat5 tyrosine phosphorylation in Baf3 cells; assay type: cell-based, murine
Protocol: For induction of cellular protein phosphorylation by sodium stibogluconate or pervanadate, Baf3 cells were incubated in 0.1% FCS RPMI 1640 medium at 37° C. for 16 hours. The cells were then washed twice in RPMI 1640 medium and incubated with sodium stibogluconate or pervanandate (0.1 mM) for various times prior to termination by lysing cells in cold lysis buffer (50 mM Tris, pH 7.4; 150 mM NaCl; 0.2 mM Na3VO4; 20 mm NaF; 1% NP40; 2 mM PMSF; 20 μg/ml of aprotinin and 1 mM of sodium molybdic acid). To determine the effect of sodium stibogluconate or potassium antimonyl tartrate on IL-3-induced Jak/Stat phosphorylation, Baf3 cells were deprived of the growth factor for 16 hours in 0.1% FCS RPMI 1640 medium and then incubated with or without sodium stibogluconate or potassium antimonyl tartrate for 10 minutes. IL-3 was next added to the cell suspension and incubated for various times. The cells were then harvested and lysed in cold lysis buffer at 4° C. for 45 minutes. Total cell lysates (TCL) were separated in SDS-PAGE gels, blotted onto nitrocellulose membrane (Schleicher & Schuell), probed with specific antibodies and detected using an enhanced chemiluminescence kit (ECL, Amersham).
A functional role of SHP-1 in dephosphorylating the Jak family kinases during cytokine signaling has been documented. To determine whether sodium stibogluconate inhibits SHP-1 in vivo, the effect of the drug on IL-3-induced Jak2 tyrosine phosphorylation in Baf3 cells was examined. Baf3 cells deprived of IL-3 were incubated with or without the drug for 10 minutes and then stimulated with IL-3 for various times. IL-3 induced tyrosine phosphorylation of Jak2 and Stat5 in Baf3 cells in the presence or absence of the drug. However, the phosphotyrosine levels of Jak2 and Stat5 in the presence of the drug were about twice of those in cells without drug treatment as determined by densitometry analysis.

[5] = molecular target: T1, GST/SHP-1 fusion protein (Mus musculus, UniProt P29351); experiment: In vitro PTPase assay, dephosphorylation of a synthetic phosphotyrosine peptide; assay type: biochemical; conditions: at 11,000 μg/ml
T1 construct: made in house
Protocol: In vitro PTPase activities were measured using the commercial protein tyrosine phosphatase assay kit (UBI) following established procedure. This assay measures the in vitro dephosphorylation of a synthetic phosphotyrosine peptide (R-R-L-I-E-D-A-E-pY-A-A-R-G). Briefly, 0.01 μg of GST/PTPase fusion protein was incubated in 50 μl of Tris buffer (10 mM Tris, […]) at 22° C. for 10 minutes, followed by addition of 0.2 mM of the phosphotyrosine peptide and incubation at 22° C. for 18 hours. 100 μl of Malachite Green solution was added and incubated for 5 minutes, and the absorbance at 660 nm was measured after 5 minutes.

[6] = molecular target: T2, PTP1B (GST fusion protein) (Homo sapiens, UniProt P18031); experiment: as above; assay type: biochemical
T2 construct: purchased Upstate Biotechnology Inc. (UBI, Lake Placid, N.Y.)
Protocol: (§1) In vitro PTPase activities were measured using the commercial protein tyrosine phosphatase assay kit (UBI) following established procedure. […] 100 μl of Malachite Green solution was added and incubated for 5 minutes, and the absorbance at 660 nm was measured after 5 minutes.

[7] = molecular target: T3, intracellular Flag-PRL-3 (Homo sapiens, UniProt O75365); experiment: PTPase activity of anti-Flag immunocomplexes from NIH3T3 transfectants; assay type: cell-based; conditions: treated 5 min
T3 construct: expressed in transfected cells; host or cells: NIH3T3
Protocol: (§2) An expression construct of Flag-tagged PRL-1 or control vector was transfected into NIH3T3 cells which were then treated without or with sodium stibogluconate and used for immunoprecipitation assays with a monoclonal anti-Flag antibody. The immunocomplexes were analyzed by SDS-PAGE/Western blotting and PTPase assays. A Flag-tagged protein with a molecular weight approximately 22 kDa as expected for Flag-PRL-1 was detected in the immunocomplexes from untreated or sodium stibogluconate -treated Flag-PRL-1 transfectants but not in those from the control cells (FIG. 6A).
(§3) Glucatime inactivates intracellular PRL phosphatases. NIH3T3 stable transfectants of Flag-tagged PRL-1 (A), PRL-2 (B) and PRL-3 (C) were untreated or treated with glucatime for 5 minutes and then washed to remove cell free drug. The Flag-tagged PRLs were immunoprecipitated from the cells using a monoclonal anti-Flag antibody. The amounts of Flag-tagged PRLs in the immunocomplexes were quantified by SDS-PAGE/Western blotting with the anti-Flag antibody (the top panel). Activities of the immunocomplexes in dephosphorylating a synthetic phosphotyrosine peptide were determined by in vitro PTPase assays (the low panel).

[8] = molecular target: T4, intracellular Flag-PRL-1 (Homo sapiens, UniProt Q93096); experiment: as above; assay type: cell-based; conditions: treated 5 min
T4 construct: expressed in transfected cells; host or cells: NIH3T3
Protocol: as §2, §3

[9] = molecular target: T5, intracellular PTP1B (Mus musculus, UniProt P35821); experiment: PTPase activity of anti-PTP1B immunocomplexes from NIH3T3 cells; assay type: cell-based; conditions: treated 5 minutes
T5 construct: endogenous in cells; host or cells: NIH3T3
Protocol: NIH3T3 cells were untreated or treated with glucatime for 5 minutes. PTP1B protein was immunoprecipitated from the cells using an anti-PTP1B antibody. The amounts of PTP1B in the immunocomplexes were quantified by SDS-PAGE/Western blotting with the anti-PTP1B antibody (A). Activities of the immunocomplexes in dephosphorylating a synthetic phosphotyrosine peptide were determined by in vitro PTPase assays (B).

[10] = molecular target: T1, GST/SHP-1 fusion protein; experiment: Reversibility of SHP-1 inhibition (washing of bead-bound GST/SHP-1); assay type: biochemical; conditions: preincubated with inhibitor, then washed
Excerpt: The beads were then washed 3 times in Tris buffer or without washing prior to in vitro PTPase assays.

[11] = test system: human cancer cell lines (A549, DR, HEY, MDA231, SK-N-SH, WM9); experiment: Growth of human cancer cell lines with glucatime and/or IFNα (MTT, 6 days); assay type: cell-based
Protocol: Growth of human cancer cell lines cultured in the absence or presence of glucatime and/or IFNα (500 U/ml) for 6 days were determined by MTT assays. These cell lines were of different human malignancies, including lung cancer (A549), lymphoma (DR), ovarian cancer (HEY), breast cancer (MDA231, or MDA), neuroblastoma (SK-N-SH, or SK) and melanoma (WM9).

[12] = molecular target: T6, recombinant PRL-3 (Homo sapiens, UniProt O75365); experiment: In vitro PTPase assay with recombinant PRL (peptide or DiFMUP substrate); assay type: biochemical; conditions: peptide substrate
T6 construct: made in house; host or cells: E. coli DH5α
Protocol: as §1
(§4) Recombinant GST fusion proteins of human PRL-1, 2 and 3 phosphatases were purified with glutathione beads from DH5α bacteria transformed by pGEX vectors containing cDNA fragments encoding the human PRLs which were generated by RT-PCR from H9 cells and confirmed by sequence analysis. Activities of the purified recombinant PRL proteins in dephosphorylating DiFMUP in the absence or presence of various inhibitors were measured following established procedure.
(§5) To assess whether sodium stibogluconate is an inhibitor of oncogenic PRL phosphatases, its effects on the PTPase activity of recombinant PRLs were evaluated by in vitro PTPase assays.

[13] = molecular target: T7, recombinant PRL-2 (Homo sapiens, UniProt Q12974); experiment: In vitro PTPase assay with recombinant PRL; assay type: biochemical
T7 construct: made in house; host or cells: E. coli DH5α
T7 sequence (Q12974 1-167): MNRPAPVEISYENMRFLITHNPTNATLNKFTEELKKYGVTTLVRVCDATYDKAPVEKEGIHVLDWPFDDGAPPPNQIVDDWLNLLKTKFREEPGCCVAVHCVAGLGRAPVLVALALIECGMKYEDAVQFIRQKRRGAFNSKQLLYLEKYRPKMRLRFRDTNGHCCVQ
Protocol: as §1, §4, §5

[14] = molecular target: T8, recombinant PRL-1 (Homo sapiens, UniProt Q93096); experiment: In vitro PTPase assay with recombinant PRL; assay type: biochemical; conditions: peptide substrate
T8 construct: made in house; host or cells: E. coli DH5α
Protocol: as §1, §4, §5

[15] = molecular target: T9, intracellular Flag-PRL-2 (Homo sapiens, UniProt Q12974); experiment: PTPase activity of anti-Flag immunocomplexes from NIH3T3 transfectants; assay type: cell-based
T9 construct: expressed in transfected cells; host or cells: NIH3T3
T9 sequence (Q12974 1-167): T7 sequence (Q12974 1-167)
Protocol: as §2
Flag-PRL-2 transfectants were briefly treated with sodium stibogluconate for 5 minutes, washed to remove cell-free drug and then incubated for various times prior to termination by cell lysis. Anti-Flag immunocomplexes from the cells were analyzed by SDS-PAGE/Western blotting and PTPase assays. The amounts of Flag-PRL-2 proteins in the immunocomplexes were at similar levels as quantified by probing with an anti-Flag antibody. […] PTPase activity of the immunocomplexes from cells incubated for 24 hours was 78% of the untreated cells.
Glucatime-induced inactivation of intracellular PRL-2 lasts more than 24 hours. NIH3T3 stable transfectant of Flag-tagged PRL-2 was treated with glucatime for 5 minutes, washed to remove cell free drug and then incubated for various times prior to termination by lysing the cells in lysis buffer. Flag-tagged PRL-2 was immunoprecipitated from the cell lysates using a monoclonal anti-Flag antibody. The amounts of Flag-tagged PRL-2 in the immunocomplexes were quantified by SDS-PAGE/Western blotting with the anti-Flag antibody (A). Activities of the immunocomplexes in dephosphorylating a synthetic phosphotyrosine peptide were determined by in vitro PTPase assays (B).

T1 sequence (P29351 whole entry, the tested form may be a part): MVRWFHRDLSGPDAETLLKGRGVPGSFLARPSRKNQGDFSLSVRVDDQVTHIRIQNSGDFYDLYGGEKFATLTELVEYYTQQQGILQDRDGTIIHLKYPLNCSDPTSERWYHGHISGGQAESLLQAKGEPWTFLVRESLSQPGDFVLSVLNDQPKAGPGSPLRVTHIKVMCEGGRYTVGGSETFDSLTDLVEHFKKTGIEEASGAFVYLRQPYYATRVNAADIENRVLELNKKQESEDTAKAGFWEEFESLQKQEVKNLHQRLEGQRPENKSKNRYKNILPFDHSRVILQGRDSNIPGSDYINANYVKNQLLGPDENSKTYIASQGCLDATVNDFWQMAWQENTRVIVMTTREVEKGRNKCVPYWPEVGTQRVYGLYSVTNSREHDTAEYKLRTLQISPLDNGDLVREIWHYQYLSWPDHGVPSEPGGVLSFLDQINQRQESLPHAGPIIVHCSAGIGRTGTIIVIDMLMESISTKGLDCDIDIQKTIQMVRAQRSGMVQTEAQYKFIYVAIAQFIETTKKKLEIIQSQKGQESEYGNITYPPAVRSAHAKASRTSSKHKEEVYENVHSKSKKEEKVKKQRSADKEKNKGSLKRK
T2 sequence (P18031 whole entry, species assumed, the tested form may be a part): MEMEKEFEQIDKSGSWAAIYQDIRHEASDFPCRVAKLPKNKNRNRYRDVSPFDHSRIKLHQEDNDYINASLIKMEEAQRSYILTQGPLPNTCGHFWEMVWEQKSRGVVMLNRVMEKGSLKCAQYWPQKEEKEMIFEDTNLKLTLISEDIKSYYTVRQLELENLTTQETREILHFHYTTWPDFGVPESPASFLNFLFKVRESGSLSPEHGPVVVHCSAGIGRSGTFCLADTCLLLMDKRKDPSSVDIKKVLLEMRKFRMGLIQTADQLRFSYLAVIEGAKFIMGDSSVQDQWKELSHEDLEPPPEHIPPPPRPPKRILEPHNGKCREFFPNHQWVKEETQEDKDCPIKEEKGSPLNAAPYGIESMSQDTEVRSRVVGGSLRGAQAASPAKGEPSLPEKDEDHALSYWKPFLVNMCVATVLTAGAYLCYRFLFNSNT
T6 sequence (O75365 whole entry): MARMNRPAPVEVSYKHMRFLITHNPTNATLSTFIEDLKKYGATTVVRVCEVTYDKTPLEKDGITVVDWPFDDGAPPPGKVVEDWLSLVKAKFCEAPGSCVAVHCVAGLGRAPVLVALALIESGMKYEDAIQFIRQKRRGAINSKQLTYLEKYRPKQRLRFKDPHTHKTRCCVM
T3 sequence (O75365 whole entry): as above
T4 sequence (Q93096 whole entry): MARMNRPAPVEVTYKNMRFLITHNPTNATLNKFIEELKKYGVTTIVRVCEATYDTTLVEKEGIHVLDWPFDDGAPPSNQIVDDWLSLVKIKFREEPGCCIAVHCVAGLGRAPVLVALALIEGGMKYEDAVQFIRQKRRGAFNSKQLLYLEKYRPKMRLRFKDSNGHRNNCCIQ
T8 sequence (Q93096 whole entry): as above
T5 sequence (P35821 whole entry): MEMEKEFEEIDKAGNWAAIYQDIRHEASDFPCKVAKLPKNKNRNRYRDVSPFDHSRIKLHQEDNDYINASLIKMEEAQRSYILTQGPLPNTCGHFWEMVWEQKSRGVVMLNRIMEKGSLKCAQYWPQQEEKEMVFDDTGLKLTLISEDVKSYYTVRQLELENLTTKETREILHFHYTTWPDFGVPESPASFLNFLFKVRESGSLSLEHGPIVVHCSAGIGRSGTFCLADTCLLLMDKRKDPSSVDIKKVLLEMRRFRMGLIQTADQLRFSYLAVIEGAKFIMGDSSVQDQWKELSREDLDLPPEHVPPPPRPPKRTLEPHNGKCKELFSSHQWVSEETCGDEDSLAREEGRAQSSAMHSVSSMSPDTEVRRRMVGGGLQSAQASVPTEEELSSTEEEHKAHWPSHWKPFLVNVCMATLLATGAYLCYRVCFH

CC1=C(/C=C/C(C)=C/C=C/C(C)=C/C(=O)O)C(C)(C)CCC1 [ATRA, all-trans-retinoic acid]
long term APL-free survival [1]: exceeding 75%
cell cycle arrest (DNA content analysis) [2]: arrested at G1 phase

O.O.O.O=C([O-])[C@H]([O-])[C@@H]([O-])C(=O)[O-].O=C([O-])[C@H]([O-])[C@@H]([O-])C(=O)[O-].[K+].[K+].[Sb+3].[Sb+3] [PSbT, potassium antimonyl tartrate]
IL-3-induced proliferation of Baf3 cells [3]: failed to enhance
toxicity against Baf3 cells [3]: marked toxicity
IL-3-induced Stat5 phosphorylation [4]: failed to enhance
inhibition of SHP-1 [5]: no detectable inhibition
inhibition of PTP1B ([6]; at 11,000 μg/ml): no detectable inhibition

CNC[C@H](O)[C@@H](O)[C@H](O)[C@H](O)CO.[O]=[Sb]([OH])([OH])[OH] [glucatime, meglumine antimonate]
PTPase activity of Flag-PRL-3 immunocomplexes from treated transfectants [7]: inactivates
PTPase activity of Flag-PRL-1 immunocomplexes from treated transfectants [8]: inactivates
inhibition of intracellular PTP1B [9]: partial inhibition
effect against recombinant PTP1B in vitro [6]: partial inhibitory effect
reversibility of SHP-1 inhibition [10]: irreversible
IFNα-induced growth inhibition in presence of glucatime ([11]; IFNα 500 U/ml): augments
growth of human cancer cell lines in culture ([11]; MTT): inhibits the growth
inhibition of recombinant PRL-3 [12]: potent inhibitor
inhibition of recombinant PRL-2 ([13]; peptide substrate): potent inhibitor
reversibility of PRL-2 inactivation ([13]; washing process / stable complex): irreversible
inhibition of recombinant PRL-1 [14]: potent inhibitor
PTPase activity of Flag-PRL-2 immunocomplexes from treated transfectants ([15]; treated 5 min): inactivates
duration of intracellular PRL-2 inactivation ([15]; treated 5 minutes, washed to remove cell free drug): more than 24 hours
